Patent publication US20210317140A1, “Heterocyclic Compounds and Methods of Use” (MEDIVATION TECHNOLOGIES, INC, priority 2013, published 2021)

Tests used:
Type in all cases: biochemical
BTK = molecular target: T1, BTK (Homo sapiens, UniProt Q06187); assay: BTK kinase assay (HotSpot, 33P ATP); details: for BTK @ 0.1 μM (% Inh): 0.1 μM compound; for BTK @ 0.1 μM (% Inh) / BTK @ 1 μM (% Inh): 10 μM ATP; for IC50: 10 dose IC50, 10 μM ATP; for BTK @ 1 μM (% Inh): 1 μM compound
T1 construct: purchased Reaction Biology Corporation
T1 sequence (Q06187 whole entry): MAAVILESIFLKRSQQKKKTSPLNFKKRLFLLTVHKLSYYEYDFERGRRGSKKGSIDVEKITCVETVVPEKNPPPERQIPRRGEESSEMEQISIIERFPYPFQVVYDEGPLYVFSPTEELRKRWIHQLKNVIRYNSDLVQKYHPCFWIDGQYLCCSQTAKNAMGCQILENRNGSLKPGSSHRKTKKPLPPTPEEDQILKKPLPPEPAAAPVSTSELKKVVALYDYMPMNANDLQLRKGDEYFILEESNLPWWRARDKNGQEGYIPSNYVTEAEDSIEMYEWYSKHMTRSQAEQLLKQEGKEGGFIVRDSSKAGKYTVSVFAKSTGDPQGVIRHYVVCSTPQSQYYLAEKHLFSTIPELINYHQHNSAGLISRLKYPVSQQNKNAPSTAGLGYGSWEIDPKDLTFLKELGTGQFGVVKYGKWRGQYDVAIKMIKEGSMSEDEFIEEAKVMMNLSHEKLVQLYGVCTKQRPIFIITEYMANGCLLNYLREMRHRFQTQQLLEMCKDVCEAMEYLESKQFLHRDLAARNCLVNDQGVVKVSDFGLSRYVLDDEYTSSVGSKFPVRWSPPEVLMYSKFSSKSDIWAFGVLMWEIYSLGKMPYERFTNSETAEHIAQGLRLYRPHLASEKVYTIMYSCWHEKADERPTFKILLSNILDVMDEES
Method in brief: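 In 20 mM Hepes (pH 7.5) with 10 mM MgCl2, 1 mM EGTA, 0.1 mM Na3VO4, 2 mM DTT, 0.02% Brij35, 0.02 mg/mL BSA and 1% DMSO, kinase and substrate were exposed to ten compound doses for 15–20 min.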

PI3Kβ = molecular target: T2, PI3Kβ (Homo sapiens, UniProt P42338); assay: PI3Kβ isoform profiling (PI3Kδ protocol); details: for PI3Kβ @ 0.3 μM (% Inh): 0.3 μM compound; for IC50: 10 dose IC50
T2 construct: purchased Reaction Biology Corporation
T2 sequence (P42338 whole entry, canonical isoform): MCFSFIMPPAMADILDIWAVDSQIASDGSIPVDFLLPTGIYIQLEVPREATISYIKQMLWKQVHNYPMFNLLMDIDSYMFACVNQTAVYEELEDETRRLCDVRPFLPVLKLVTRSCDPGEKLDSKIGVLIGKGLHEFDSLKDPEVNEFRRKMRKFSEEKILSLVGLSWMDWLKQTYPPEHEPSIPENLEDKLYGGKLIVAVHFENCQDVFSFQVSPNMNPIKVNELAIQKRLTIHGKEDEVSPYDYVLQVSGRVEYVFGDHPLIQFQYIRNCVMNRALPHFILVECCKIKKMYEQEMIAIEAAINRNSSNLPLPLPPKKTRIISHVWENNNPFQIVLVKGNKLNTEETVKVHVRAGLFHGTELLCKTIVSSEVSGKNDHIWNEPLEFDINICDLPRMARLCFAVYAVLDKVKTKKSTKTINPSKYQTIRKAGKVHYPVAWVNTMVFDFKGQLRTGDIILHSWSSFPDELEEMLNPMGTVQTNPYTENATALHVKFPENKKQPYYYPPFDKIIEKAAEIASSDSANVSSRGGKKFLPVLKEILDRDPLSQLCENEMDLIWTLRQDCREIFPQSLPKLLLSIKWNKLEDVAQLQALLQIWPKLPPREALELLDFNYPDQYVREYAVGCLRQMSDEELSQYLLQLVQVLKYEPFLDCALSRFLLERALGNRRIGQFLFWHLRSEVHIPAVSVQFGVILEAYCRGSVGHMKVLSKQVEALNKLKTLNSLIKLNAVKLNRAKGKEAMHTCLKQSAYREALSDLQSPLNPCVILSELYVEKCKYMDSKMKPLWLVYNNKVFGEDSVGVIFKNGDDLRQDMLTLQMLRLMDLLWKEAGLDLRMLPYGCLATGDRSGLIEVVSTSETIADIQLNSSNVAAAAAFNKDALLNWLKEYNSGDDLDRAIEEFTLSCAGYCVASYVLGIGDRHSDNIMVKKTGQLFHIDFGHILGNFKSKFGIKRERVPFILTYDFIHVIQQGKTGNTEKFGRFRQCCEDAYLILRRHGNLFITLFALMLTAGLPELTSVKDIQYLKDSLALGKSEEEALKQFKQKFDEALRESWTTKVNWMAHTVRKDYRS
T2 sequence (P27986 whole entry partner, canonical isoform): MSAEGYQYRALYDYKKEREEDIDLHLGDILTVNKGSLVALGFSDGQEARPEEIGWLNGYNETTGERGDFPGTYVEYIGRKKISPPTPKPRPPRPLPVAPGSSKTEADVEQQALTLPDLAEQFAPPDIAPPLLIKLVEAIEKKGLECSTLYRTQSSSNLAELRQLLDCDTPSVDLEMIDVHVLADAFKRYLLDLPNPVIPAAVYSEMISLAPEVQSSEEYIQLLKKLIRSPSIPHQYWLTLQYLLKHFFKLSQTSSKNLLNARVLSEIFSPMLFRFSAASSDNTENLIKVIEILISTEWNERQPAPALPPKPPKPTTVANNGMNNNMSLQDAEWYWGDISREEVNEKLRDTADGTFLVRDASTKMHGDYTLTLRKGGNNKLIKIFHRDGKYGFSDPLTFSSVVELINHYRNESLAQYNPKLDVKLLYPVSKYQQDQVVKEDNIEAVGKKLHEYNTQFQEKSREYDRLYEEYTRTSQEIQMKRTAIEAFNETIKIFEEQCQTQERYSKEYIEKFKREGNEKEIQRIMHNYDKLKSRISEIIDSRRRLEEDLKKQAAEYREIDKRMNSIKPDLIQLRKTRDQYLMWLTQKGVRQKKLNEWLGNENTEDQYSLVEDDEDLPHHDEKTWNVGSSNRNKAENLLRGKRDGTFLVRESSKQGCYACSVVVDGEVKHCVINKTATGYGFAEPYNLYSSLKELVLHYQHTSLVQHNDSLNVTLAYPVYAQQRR
Source text: (§1) PI3Kδ assay: The PIP3 product is detected by displacement of biotin-PIP3 from an energy transfer complex consisting of Europium labeled anti-GST monoclonal antibody, a GST-tagged pleckstrin homology (PH) domain, biotinylated PIP3 and Streptavidin-Allophycocyanin (APC). Excitation of Europium in the complex results in an energy transfer to the APC and a fluorescent emission at 665 nm. The PIP3 product formed by PI 3-Kinase(h) activity displaces biotin-PIP3 from the complex resulting in a loss of energy transfer and thus a decrease in signal. This is a 3-step reaction: First, the kinase reaction with PIP2 substrate is carried out in the presence of ATP (10 μM), and the reaction is quenched with stop Solution, and then finally detect by adding Detection Mixture followed by incubation (10 min). Reaction procedure: 1) Prepare substrate in freshly prepared Reaction Buffer. 2) Deliver kinase into the substrate solution and gently mix. 3) Deliver compounds in 100% DMSO (1 μM) into the kinase reaction mixture by Acoustic technology (Echo550; nanoliter range), incubate for 10 min at RT. 4) Deliver ATP into the reaction mixture to initiate the reaction. 5) Incubate for 30 min at 30° C. 6) Quench the reaction with Stop Solution. 7) Add Detection Mixture, and incubate for overnight. 8) Measure HTRF: Ex=320 nm, ratio of Em=615 nm and Em=665 nm. The emission ratio is converted into μM PIP3 production based on PIP3 standard curves. The nonlinear regression to obtain the standard curve and IC50 values are performed using Graphpad Prism software. Assay Buffer: HEPES 50 mM (pH7.0), NaN3 0.02%, BSA 0.01%, Orthovanadate 0.1 mM, 1% DMSO. Detection buffer: HEPES 10 mM (pH7.0), BSA 0.02%, KF 0.16 M, EDTA 4 mM. Substrate: 10 μM PIP2 substrate (PI(4,5)P2).
(§2) Compounds of the invention were profiled in a 10 dose IC50 panel against PI3Kα, PI3Kβ, and PI3Kγ kinases, provided by Reaction Biology Corporation, applied to the PI3Kδ protocol provided in Example B1.

TEC = molecular target: T3, TEC (Homo sapiens, UniProt P42680); assay: TEC kinase profiling (BTK protocol); details: for TEC @ 0.3 μM (% Inh): 0.3 μM compound; for IC50: 10 dose IC50
T3 construct: purchased Reaction Biology Corporation
T3 sequence (P42680 1-631): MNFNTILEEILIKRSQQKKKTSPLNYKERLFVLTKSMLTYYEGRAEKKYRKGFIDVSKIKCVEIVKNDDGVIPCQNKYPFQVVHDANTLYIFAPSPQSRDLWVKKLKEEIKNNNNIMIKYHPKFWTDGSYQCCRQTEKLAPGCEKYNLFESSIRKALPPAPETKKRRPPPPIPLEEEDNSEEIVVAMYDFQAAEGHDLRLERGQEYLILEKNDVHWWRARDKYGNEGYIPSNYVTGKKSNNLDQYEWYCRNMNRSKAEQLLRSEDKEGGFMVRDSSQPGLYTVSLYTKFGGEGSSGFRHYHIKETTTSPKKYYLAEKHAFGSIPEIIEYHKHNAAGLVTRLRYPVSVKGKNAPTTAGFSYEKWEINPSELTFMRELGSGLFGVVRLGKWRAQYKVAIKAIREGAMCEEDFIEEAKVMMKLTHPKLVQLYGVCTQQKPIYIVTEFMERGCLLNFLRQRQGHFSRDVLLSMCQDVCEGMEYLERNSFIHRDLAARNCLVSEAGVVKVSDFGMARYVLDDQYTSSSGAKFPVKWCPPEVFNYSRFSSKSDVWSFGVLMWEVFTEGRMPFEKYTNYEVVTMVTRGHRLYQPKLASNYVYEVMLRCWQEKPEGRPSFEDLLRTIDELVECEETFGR
Procedure: BTK assay: In vitro profiling protein kinases was performed using the “HotSpot” assay platform. Briefly, specific kinase/substrate pairs along with required cofactors were prepared in reaction buffer. Compounds were prepared as 10 mM stock solutions in DMSO. Compounds were delivered into the reaction, followed 15-20 minutes later by addition of a mixture of ATP (Sigma, St. Louis Mo.) and ^33P ATP (Perkin Elmer, Waltham Mass.) to a final concentration of 10 μM. […] IC50 values and curve fits were obtained using Prism (GraphPad Software). Buffer Conditions: 20 mM Hepes (pH 7.5), 10 mM MgCl2, 1 mM EGTA, 0.02% Brij35, 0.02 mg/mL BSA, 0.1 mM Na3VO4, 2 mM DTT, 1% DMSO.

PI3Kγ = molecular target: T4, PI3Kγ (Homo sapiens, UniProt P48736); assay: PI3Kγ isoform profiling (PI3Kδ protocol); details: for PI3Kγ @ 0.3 μM (% Inh): 0.3 μM compound; for IC50: 10 dose IC50
T4 construct: purchased Reaction Biology Corporation
T4 sequence (P48736 whole entry, canonical isoform): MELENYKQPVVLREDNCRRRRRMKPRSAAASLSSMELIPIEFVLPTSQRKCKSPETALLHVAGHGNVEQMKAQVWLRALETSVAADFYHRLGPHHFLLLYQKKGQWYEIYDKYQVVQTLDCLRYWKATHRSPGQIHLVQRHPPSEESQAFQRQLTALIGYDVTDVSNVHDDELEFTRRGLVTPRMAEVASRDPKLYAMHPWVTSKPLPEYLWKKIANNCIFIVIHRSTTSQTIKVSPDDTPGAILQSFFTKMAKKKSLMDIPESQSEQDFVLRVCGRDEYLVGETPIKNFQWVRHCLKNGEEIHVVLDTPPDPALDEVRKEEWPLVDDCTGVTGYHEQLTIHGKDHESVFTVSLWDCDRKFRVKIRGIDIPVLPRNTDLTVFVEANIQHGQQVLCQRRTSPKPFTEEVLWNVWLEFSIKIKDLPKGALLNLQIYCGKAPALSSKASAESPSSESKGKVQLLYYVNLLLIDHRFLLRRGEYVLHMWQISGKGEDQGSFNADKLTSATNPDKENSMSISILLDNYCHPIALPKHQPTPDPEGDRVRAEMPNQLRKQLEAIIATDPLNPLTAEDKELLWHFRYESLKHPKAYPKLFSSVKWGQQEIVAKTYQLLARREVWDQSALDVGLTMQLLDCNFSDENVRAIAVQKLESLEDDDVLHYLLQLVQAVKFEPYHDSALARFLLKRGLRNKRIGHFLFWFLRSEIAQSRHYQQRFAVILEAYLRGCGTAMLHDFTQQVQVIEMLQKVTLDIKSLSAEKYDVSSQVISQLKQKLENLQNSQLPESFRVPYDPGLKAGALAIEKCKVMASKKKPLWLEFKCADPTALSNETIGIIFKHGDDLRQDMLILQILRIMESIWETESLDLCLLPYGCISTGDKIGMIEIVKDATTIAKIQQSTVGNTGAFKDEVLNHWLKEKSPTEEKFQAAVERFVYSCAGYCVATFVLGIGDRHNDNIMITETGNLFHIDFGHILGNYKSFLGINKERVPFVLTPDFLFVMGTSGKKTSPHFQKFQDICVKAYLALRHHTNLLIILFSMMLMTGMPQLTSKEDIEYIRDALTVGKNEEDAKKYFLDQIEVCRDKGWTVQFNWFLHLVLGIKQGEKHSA
Source text: as §1, §2

PI3Kδ = molecular target: T5, PI3Kδ (Homo sapiens, UniProt O00329); assay: PI3Kδ kinase assay (HTRF, PIP3 detection); details: for PI3Kδ @ 0.1 μM (% Inh): 0.1 μM compound; for PI3Kδ @ 0.1 μM (% Inh) / PI3Kδ @ 1 μM (% Inh): 10 μM ATP; for IC50: 10 dose IC50, 10 μM ATP; for PI3Kδ @ 1 μM (% Inh): 1 μM compound
T5 construct: purchased Reaction Biology Corporation
T5 sequence (O00329 whole entry): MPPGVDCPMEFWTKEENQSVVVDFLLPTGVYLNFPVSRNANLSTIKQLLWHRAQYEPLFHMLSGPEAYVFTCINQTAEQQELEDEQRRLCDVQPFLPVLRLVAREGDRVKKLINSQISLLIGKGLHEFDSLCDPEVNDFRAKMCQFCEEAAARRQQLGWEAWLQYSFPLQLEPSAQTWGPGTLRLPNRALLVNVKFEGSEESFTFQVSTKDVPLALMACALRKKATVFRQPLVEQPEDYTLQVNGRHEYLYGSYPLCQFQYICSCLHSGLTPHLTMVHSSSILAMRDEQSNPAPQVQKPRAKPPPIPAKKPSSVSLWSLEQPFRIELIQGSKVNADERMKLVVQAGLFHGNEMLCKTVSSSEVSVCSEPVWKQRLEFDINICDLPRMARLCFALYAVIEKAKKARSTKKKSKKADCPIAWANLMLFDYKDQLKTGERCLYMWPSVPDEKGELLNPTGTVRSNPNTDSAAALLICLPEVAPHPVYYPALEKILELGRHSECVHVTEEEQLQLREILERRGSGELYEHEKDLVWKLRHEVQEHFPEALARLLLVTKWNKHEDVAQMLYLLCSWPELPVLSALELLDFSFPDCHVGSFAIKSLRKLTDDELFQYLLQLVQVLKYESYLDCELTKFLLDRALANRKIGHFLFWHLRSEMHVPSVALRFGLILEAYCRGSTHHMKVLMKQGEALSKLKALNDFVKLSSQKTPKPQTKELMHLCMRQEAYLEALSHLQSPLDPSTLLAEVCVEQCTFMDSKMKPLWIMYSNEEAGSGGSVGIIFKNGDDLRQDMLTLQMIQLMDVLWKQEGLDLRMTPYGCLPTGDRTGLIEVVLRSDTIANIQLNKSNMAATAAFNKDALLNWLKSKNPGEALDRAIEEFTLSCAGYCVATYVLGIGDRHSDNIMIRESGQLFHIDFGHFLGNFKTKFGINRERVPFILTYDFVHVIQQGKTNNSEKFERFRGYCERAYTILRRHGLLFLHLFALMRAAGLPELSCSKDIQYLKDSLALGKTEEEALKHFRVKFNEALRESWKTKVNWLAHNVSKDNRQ
T5 sequence (P27986 whole entry partner): as the sequence (P27986 whole entry partner, canonical isoform) above
Method in brief: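 10-dose HTRF assay; kinase preincubated with compound 10 min at RT, then reacted with 10 μM PIP2 and 10 μM ATP for 30 min at 30 °C in HEPES pH 7.0 buffer. PIP3 product displaces biotin-PIP3 from the Eu/APC complex; signal converted to PIP3 via standard curve, IC50 by nonlinear regression.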

BTK @ 0.1 μM (% Inh) (BTK) | IC50 (BTK) | PI3Kβ @ 0.3 μM (% Inh) (PI3Kβ; 0.3 µM) | TEC @ 0.3 μM (% Inh) (TEC; 0.3 µM) | PI3Kγ @ 0.3 μM (% Inh) (PI3Kγ; 0.3 µM) | PI3Kδ @ 0.1 μM (% Inh) (PI3Kδ) | IC50 (PI3Kδ) | BTK @ 1 μM (% Inh) (BTK) | PI3Kβ @ 0.3 μM (% Inh) (PI3Kβ) | TEC @ 0.3 μM (% Inh) (TEC) | PI3Kγ @ 0.3 μM (% Inh) (PI3Kγ) | PI3Kδ @ 1 μM (% Inh) (PI3Kδ) | Structure (SMILES) | IC50 (PI3Kβ) | IC50 (TEC) | IC50 (PI3Kγ)
63.12 % Inh | 81.1 nM | 55.06 % Inh | 41.28 % Inh | 38.58 % Inh | 77.7 % Inh | 9.1 nM |  |  |  |  |  | Nc1ncnc2c1c(-c1cc(O)cc(F)c1)nn2C1CCc2ccccc2C1 (single isomer, unassigned) [6a, 3-(4-amino-1-(1,2,3,4-tetrahydronaphthalen-2-yl)-1H-pyrazolo[3,4-d]pyrimidin-3-yl)-5-fluorophenol] |  |  | 
90.90 % Inh | 7 nM |  |  |  | 61.73 % Inh | 61.3 nM |  |  |  |  |  | Nc1ncnc2c1c(-c1ccc(F)c(O)c1)nn2C1Cc2ccccc2C1 [Compound No. 29, 5-(4-amino-1-indan-2-yl-pyrazolo[3,4-d]pyrimidin-3-yl)-2-fluoro-phenol] | 418 nM | 20.5 nM | 196 nM
90.244 % Inh | 13.5 nM |  |  |  | 69.44 % Inh | 33.2 nM | 98.64 % Inh | 27.87 % Inh | 61.02 % Inh | 62.17 % Inh | 99.12 % Inh | Nc1ncnc2c1c(-c1ccc(Cl)c(O)c1)nn2C1Cc2ccccc2C1 [Compound No. 56, 5-[4-amino-1-(2,3-dihydro-1H-inden-2-yl)-1H-pyrazolo[3,4-d]pyrimidin-3-yl]-2-chlorophenol] |  |  | 
54.54 % Inh | 84.3 nM |  |  |  | 57.97 % Inh | 32.1 nM | 89.54 % Inh | 20.68 % Inh | 42.69 % Inh | 51.6 % Inh | 87.4 % Inh | COc1ccc(-c2nn(C3Cc4ccccc4C3)c3ncnc(N)c23)cc1O [Compound No. 68, 5-[4-amino-1-(2,3-dihydro-1H-inden-2-yl)-1H-pyrazolo[3,4-d]pyrimidin-3-yl]-2-methoxyphenol] |  |  | 
63.18 % Inh | 134 nM |  |  |  | 96.89 % Inh | 8 nM | 93.26 % Inh | 60.98 % Inh | 40.21 % Inh | 30.85 % Inh | 100.0 % Inh | Nc1ncnc2c1c(-c1cc(O)cc(F)c1)nn2C1Cc2ccc(F)cc2C1 (stereo not shown) [compound 57, 3-[4-amino-1-(5-fluoro-2,3-dihydro-1H-inden-2-yl)-1H-pyrazolo[3,4-d]pyrimidin-3-yl]-5-fluorophenol] |  |  | 
0.67 % Inh | > 1000 nM |  |  |  | 93.99 % Inh | 2.5 nM | 9.91 % Inh | 67.67 % Inh | −3.89 % Inh | 57.81 % Inh | 100.0 % Inh | Nc1ncnc2c1c(-c1cc(O)c(F)c(C(F)(F)F)c1)nn2C1Cc2ccccc2C1 [Compound No. 102, 5-[4-amino-1-(2,3-dihydro-1H-inden-2-yl)-1H-pyrazolo[3,4-d]pyrimidin-3-yl]-2-fluoro-3-(trifluoromethyl)phenol] |  |  | 

Structure (SMILES) | BTK @ 0.1 μM (% Inh) (BTK) | IC50 (BTK) | PI3Kβ @ 0.3 μM (% Inh) (PI3Kβ; 0.3 µM) | TEC @ 0.3 μM (% Inh) (TEC; 0.3 µM) | PI3Kγ @ 0.3 μM (% Inh) (PI3Kγ; 0.3 µM) | PI3Kδ @ 0.1 μM (% Inh) (PI3Kδ) | IC50 (PI3Kδ) | BTK @ 1 μM (% Inh) (BTK) | PI3Kβ @ 0.3 μM (% Inh) (PI3Kβ) | TEC @ 0.3 μM (% Inh) (TEC) | PI3Kγ @ 0.3 μM (% Inh) (PI3Kγ) | PI3Kδ @ 1 μM (% Inh) (PI3Kδ) | IC50 (PI3Kβ) | IC50 (TEC) | IC50 (PI3Kγ)
Nc1ncnc2c1c(-c1cc(O)cc(F)c1)nn2C1Cc2ccccc2C1 [compound 3, 3-(4-amino-1-(2,3-dihydro-1H-inden-2-yl)-1H-pyrazolo[3,4-d]pyrimidin-3-yl)-5-fluorophenol] |  | 67.3 nM |  |  |  |  | 7.9 nM |  |  |  |  |  | 90.8 nM | 182 nM | 53.5 nM
